Earlier results on 1 compound are cited in US20190083388A1, “SYNTHENTIC TRANSDERMAL CANNABIDIOL FOR THE TREATMENT OF FOCAL EPILEPSY IN ADULTS” (ZYNERBA PHARMACEUTICALS, INC., priority 2017, published 2019).

Read-outs that look alike come from different tables or passages of the source.

Assay in data set [1]: not given
This is another data set of the same source.

A further data set deals with CB2 receptors (Homo sapiens, UniProt P34972).
CB2 receptors, sequence (P34972 whole entry): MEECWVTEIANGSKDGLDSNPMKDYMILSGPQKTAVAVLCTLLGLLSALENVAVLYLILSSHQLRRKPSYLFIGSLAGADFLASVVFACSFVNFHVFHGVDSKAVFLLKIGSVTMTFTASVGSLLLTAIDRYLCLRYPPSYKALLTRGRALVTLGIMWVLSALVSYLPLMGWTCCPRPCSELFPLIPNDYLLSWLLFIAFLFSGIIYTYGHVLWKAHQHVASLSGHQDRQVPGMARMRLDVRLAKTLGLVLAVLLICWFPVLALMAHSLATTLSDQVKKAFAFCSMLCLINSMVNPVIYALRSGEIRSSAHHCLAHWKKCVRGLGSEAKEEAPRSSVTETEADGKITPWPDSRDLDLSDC

`C=C(C)C1CCC(C)=CC1c1c(O)cc(CCCCC)cc1O` (stereo not shown) [CBD, 2-[3-methyl-6-(1-methylethenyl)-2-cyclohexen-1-yl]-5-pentyl-1,3-benzenediol]: the bioavailability result (oral) was “≈ 6%” and the bioavailability result (transdermal delivery) is reported as “about 25%”. Besides, in data set [1], the solubility in water entry was “virtually insoluble”. Also, at CB2 receptors, the “affinity for CB2 receptors” value is “low affinity”.
